The METLIN SMRT retention time set (Domingo-Almenara et al. 2019)

Assay: gradient 5% acetonitrile 3 min, to 50% in 2 min, to 85% in 15 min, held 3 min, 100 µL/min
Conditions: column: Zorbax Extend-C18 2.1 x 50 mm; eluents: water / acetonitrile, 0.1% formic acid
In short: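 Data were gathered over 3 months by HPLC coupled to a quadrupole time-of-flight mass spectrometer, operated in positive and negative ionization mode. Mixtures of ~100 pure standards ran on a Zorbax Extend-C18 column (2.1 × 50 mm, 1.8 μm) at 100 μL/min, with water and acetonitrile each containing 0.1% formic acid and dead and dwell volumes of 40 μL and 900 μL. Retention time was read from adduct peaks picked by computer and checked manually.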

Structure (SMILES)	RP-LC retention time [s]
CCc1ccc(C(C)NC(=O)c2cccc(C3CCCN(C(=O)NC)C3)c2)cc1 (stereo not given)	888
CCN1CCN(c2cc(C)c3cc(NC(=O)c4ccc(Br)cc4)ccc3n2)CC1	610
O=C(CCS(=O)(=O)c1ccccc1)Nc1cc(-c2ccccc2)nn1CCO	695
N#CC1(C(=O)NCc2nc(-c3ccccc3)no2)CC1	729
Cc1ccsc1CN1CCCC1c1nnc2n1CCN(C(=O)C(C)C)CC2 (stereo not given)	585
COC(=O)c1c(N)n(C(C)c2ccccc2)c2nc3ccccc3nc12 (stereo not given)	727
Cc1ccc(NS(=O)(=O)c2ccc3c(c2)CCCC(=O)N3)cc1F	763
O=C(N[C@@H]1CN(Cc2ccccc2)C[C@H]1CO)C1(c2ccccc2)CC1	652
O=C(c1ccc(Br)cc1)N1CCC(n2c(-c3ccoc3)nc3cccnc32)C1 (stereo not given)	783
CCc1ccc(CNC(=O)C2(CC)CCCCC(=O)N2)cc1 (stereo not given)	771
CC(C)N1C(=O)c2cccnc2Sc2cc(C(=O)N3CCCCC3)ccc21	769
CC1CCC2(CC1)NC(=O)N(CC(=O)NCc1ccccc1F)C2=O (stereo not given)	772
Cc1ccc2oc(-c3nnc(C(=O)NCCCN4CCN(C)CC4)o3)c(C)c2c1	622
CN(Cc1ccccc1)C(=O)C1CC(=O)N(CCc2c[nH]c3ccc(Cl)cc23)C1 (stereo not given)	863
Cc1cc(C(=O)Nc2nc(-c3cc4ccccc4o3)cs2)on1	948
Cc1cccc2nnc(N3CCCN(C(=O)c4ccccc4Cl)CC3)n12	600
CC1CC(=O)c2cnc(N3CCN(c4ncccn4)CC3)nc2C1 (stereo not given)	798
COc1ccc(-c2nc(C)cc3nn(CC(=O)NCc4ccccc4)c(=O)n23)cc1	788
O=C1CCCCC(Cc2ccccc2)(C(=O)NCCc2ccccc2)N1 (stereo not given)	806
COc1ccc(OC)c(NC(=O)c2noc3c2CCCC3)c1	1160
COc1cn(CC(=O)Nc2cccc(C)c2C)c(CN2CCCCCC2)cc1=O	574
COc1ccc(NCc2nnc3n2CCCCC3)cc1OC	559
COc1ccccc1NC(=O)N1CCc2nc(-c3ccccc3)ncc2C1	922

Structure (SMILES)	RP-LC retention time [s]
CCc1c2c(nc3sc(C(=O)NCC4CCCO4)c(N)c13)CC(C)(C)CC2=O (stereo not given)	836
CCOc1ccc(NS(=O)(=O)c2ccc(-c3c(C)noc3C)cc2)cc1	934
CC(C)CN1C(=O)c2cccn2CC1C(=O)NCCCOC1CCN(C(C)C)CC1 (stereo not given)	598
COc1ccc(NC(=O)N2CCC(c3noc(-c4cccnc4)n3)C2)cc1 (stereo not given)	690
COc1ccc(-c2cc(-c3nc4c5sc6nc(C)cc(C)c6c5ncn4n3)[nH]n2)cc1OC	919
COCCCNC(=O)c1ccc2c(c1)N=C(C)c1cc(Cl)ccc1S2	914
Cc1ccc(CNC(=O)c2ccc3c(c2)Sc2ncccc2C(=O)N3C)cc1	796
CC(C)c1ccc(S(=O)(=O)N2CCCC2c2nc(-c3ccc(Cl)cc3)no2)cc1 (stereo not given)	1360
CCn1cc(S(=O)(=O)N2CCCn3nc(-c4ccncc4)cc3C2)cn1	577
CC(=O)Nc1ccc(OCC(O)CNC(C)(C)CC(C)(C)C)cc1 (stereo not given)	562
COCCn1cc(C(=O)NCc2c(F)cccc2F)c2nn(-c3ccccc3)c(=O)c-2c1	809
COc1ccc(CC(=O)N2CCC(n3cnnc3C3CC3)CC2)cc1Cl	658
Cc1ccc(C)c(-c2nc(-c3cccc(-c4ccn[nH]4)c3)no2)c1	1190
CN(C)c1nc2ncn3c(=O)n(CC(=O)NCc4ccc(F)cc4)nc3c2s1	675
COc1ccc(N2CC(c3nc(-c4ccc(C)cc4)no3)CC2=O)c(OC)c1 (stereo not given)	888
O=C(Nc1ccc(F)cc1Cl)c1cc2n(n1)CCCC2	1010
Fc1ccc(C2Cn3nnc(-c4nc(-c5ccncc5)no4)c3CO2)cc1 (stereo not given)	912
CC1CCN(S(=O)(=O)c2ccc(-c3nnc(C(=O)NCCCN4CCN(C)CC4)o3)cc2)CC1	623
Cc1c(C(=O)O)nnn1-c1ccc2c(c1)CCC2	759
Cc1ccc(NC(=O)c2cn(C)nc2S(=O)(=O)N2CCSCC2)cc1C	987
Cc1c(C(=O)N2CCc3nc(NC(=O)C4CCCO4)sc3C2)cnn1-c1ccccc1 (stereo not given)	665
CC(=O)N1CCc2cc(N3CC(C(=O)Nc4ccc(F)c(C)c4)CC3=O)ccc21 (stereo not given)	740
COc1ccc(CCNC(=O)c2cccc3c2C(=O)N(CC2CCCO2)C3)c(OC)c1OC (stereo not given)	875

Structure (SMILES)	RP-LC retention time [s]
O=c1n(Cc2nc(-c3ccc4c(c3)OCO4)no2)nc2ccc(-c3ccccc3)nn12	843
COC(=O)c1ccc(CSc2nnc(N3CCN(c4ccc(F)cc4)CC3)s2)o1	927
Cc1noc2ncn(CC(=O)Nc3c(F)c(F)cc(F)c3F)c(=O)c12	759
CC(CC(C#N)(c1ccccc1)c1ccccc1)N1CCCCC1 (stereo not given)	780
CC(C)c1noc(C2CCCN(S(=O)(=O)c3cn(C)cn3)CCC(=O)NCC2)n1 (stereo not given)	640
O=C([C@@H]1C[C@H](F)CN1S(=O)(=O)c1cccc(C(F)(F)F)c1)N1CCCCC1	878
Cc1cc(NCc2ccccn2)n2ncc(-c3ccccc3)c2n1	706
Cc1ccc(-c2csc(NC(=O)c3nc4ccccc4s3)n2)o1	1120
CCOC(=O)c1ccc(NC(=O)c2ccccc2-c2ccccc2C(=O)O)cc1	842
COc1ccc(CCN2CC(=O)N(c3cc(C)cc(C)c3)[C@@H]3CS(=O)(=O)C[C@@H]32)cc1	865
O=C(COc1ccc(Cl)cc1Cl)N1CCN(c2ccc3nncn3n2)CC1	687
Cc1cccc(C)c1NC(=O)N1CCC(OC2CCN(S(C)(=O)=O)CC2)CC1	718
Cc1c(C(=O)NC2CC2)c(C)n(C)c1-c1ccccc1	830
C=CCn1ccc2c(OCC(=O)Nc3cc(C)on3)cccc2c1=O	750
CCOC(=O)c1c(C)[nH]c(C(=O)N2CCC(C(C)C(=O)NCc3ccc(OCC)cc3)CC2)c1C (stereo not given)	860
Cc1ccc(Nc2c(-c3ccc(O)cc3)nc3cccc(C)n23)cc1	732
CC(C)CN(C1CCOCC1)C1CN(C(=O)Nc2ccccc2)C1	594
Cc1ccc(Cl)cc1NC(=O)Cc1c(C)nn(-c2nc(-c3ccc(F)cc3)cs2)c1C	1250
Cc1noc(-c2nn(C)c3c2CN(C(=O)COc2ccc(Cl)cc2)CC3)n1	791
CCc1nc(-c2ccc(-c3noc(CNC(=O)c4ccco4)n3)cc2)cs1	924
CCOc1ccc(-c2noc(C3CC(=O)N(c4cc(Cl)ccc4OC)C3)n2)cc1 (stereo not given)	1040
CCc1nc(-c2cc(S(=O)(=O)N3CCC(C(=O)NC4CCCCCCC4)CC3)c(C)s2)no1	1130
CCCCN(C)Cc1nc2nc(C)cc(N3CCOCC3)n2n1	582

Structure (SMILES)	RP-LC retention time [s]
Cc1oc(-c2[nH]ncc2C(=O)N2CCCCC2)cc1S(=O)(=O)Nc1ccc(F)cc1	738
Clc1ccc(-c2nc3cnccn3c2Nc2ccc3c(c2)OCO3)cc1	930
CCc1ccc(S(=O)(=O)N2CCc3c(c(-c4nnc(-c5ccc(F)cc5)o4)nn3C)C2)cc1	1050
O=S(=O)(c1cccn2c(SCc3ccc(F)cc3Cl)nnc12)N1CCCCC1	879
CCN1C(=O)c2cccnc2Sc2cc(CNC(=O)c3c(OC)cccc3OC)ccc21	784
CCS(=O)(=O)N1CCC[C@H](n2c(=O)n(C)c3cccnc32)C1	698
Cc1ccc(N2CCC(NC(=O)c3ccc(N(C)C)cc3)C2=O)cc1 (stereo not given)	810
COc1cc(O)ccc1-c1nc2ccc(Br)cn2c1Nc1ccccc1C	736
Cc1ccc(CNC(=O)c2cn3ccc(C)cc3n2)cc1	670
CCCCN1C(=O)C(C)(C(=O)NCc2cc(F)cc(F)c2)Oc2cccnc21 (stereo not given)	1020
Cc1ccc(C)c(S(=O)(=O)N2CCCC2c2nc(-c3ccc(Cl)cc3)no2)c1 (stereo not given)	1270
CN1CCN(c2ccc(CNC(=O)CN3CCN(Cc4ccc(F)cc4)C3=O)cc2)CC1	599
Cc1cc(S(=O)(=O)N2CC(c3nc(-c4ccccc4)nn3C)C2)ccc1F	602
CCc1ccc(N2C(=O)c3c(C(=O)OC)ncn3CC2(C)C(=O)NC2CCCC2)cc1 (stereo not given)	615
O=C(NCCc1cccs1)c1cc[nH]c1C1CCCNC1 (stereo not given)	614
Cc1ccc(C)c(C(=O)CCC(=O)O)c1	818
Cc1ccc(CNC(=O)C2(C)CCCN(C(=O)Nc3ccc(Br)cc3)C2)cc1 (stereo not given)	1040
Cc1nn(C)cc1S(=O)(=O)N(Cc1ccccc1)c1ccccc1	861
CC(C)c1noc(-c2cc(=O)n(CC(=O)NCc3ccc(Cl)cc3)c3ccccc23)n1	1020
CCN1C(=O)C(C)(C(=O)NCc2ccc(F)c(Cl)c2)Oc2cccnc21 (stereo not given)	902
CC(=O)N1CCc2cc(C(=O)N(C)C)ccc21	595
